One compound from ChEMBL document CHEMBL5375948, “Development and Pharmacochemical Characterization Discover a Novel Brain-Permeable HDAC11-Selective Inhibitor with Therapeutic Potential by Regulating Neuroinflammation in Mice” (J Med Chem, 2023) can be followed below.

As a reminder, the IC50 is the concentration needed to halve the response being measured.

Test [1] addresses T1, Histone deacetylase 8 (Homo sapiens, UniProt Q9BY41).
T1 sequence (Q9BY41 whole entry): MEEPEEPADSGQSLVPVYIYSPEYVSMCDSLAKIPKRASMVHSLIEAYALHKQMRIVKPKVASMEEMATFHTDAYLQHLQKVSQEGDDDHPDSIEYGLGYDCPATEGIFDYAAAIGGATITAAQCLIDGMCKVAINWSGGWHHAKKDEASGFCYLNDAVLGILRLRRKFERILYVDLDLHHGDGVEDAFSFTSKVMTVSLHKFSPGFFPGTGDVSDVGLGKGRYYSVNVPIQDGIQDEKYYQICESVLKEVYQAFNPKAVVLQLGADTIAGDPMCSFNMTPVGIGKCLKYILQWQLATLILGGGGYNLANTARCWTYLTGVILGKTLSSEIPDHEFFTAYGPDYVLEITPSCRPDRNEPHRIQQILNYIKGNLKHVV
The test can be described thus: Inhibition of recombinant full-length human HDAC8 using FAM-RHKK(Ac)-NH2 as substrate by electrophoretic mobility shift assay. A general note: A gel shift assay detects complexes by their altered migration in electrophoresis.

Test [2] concerns the target T2, Histone deacetylase 7 (Homo sapiens, UniProt Q8WUI4).
T2 sequence (Q8WUI4 whole entry): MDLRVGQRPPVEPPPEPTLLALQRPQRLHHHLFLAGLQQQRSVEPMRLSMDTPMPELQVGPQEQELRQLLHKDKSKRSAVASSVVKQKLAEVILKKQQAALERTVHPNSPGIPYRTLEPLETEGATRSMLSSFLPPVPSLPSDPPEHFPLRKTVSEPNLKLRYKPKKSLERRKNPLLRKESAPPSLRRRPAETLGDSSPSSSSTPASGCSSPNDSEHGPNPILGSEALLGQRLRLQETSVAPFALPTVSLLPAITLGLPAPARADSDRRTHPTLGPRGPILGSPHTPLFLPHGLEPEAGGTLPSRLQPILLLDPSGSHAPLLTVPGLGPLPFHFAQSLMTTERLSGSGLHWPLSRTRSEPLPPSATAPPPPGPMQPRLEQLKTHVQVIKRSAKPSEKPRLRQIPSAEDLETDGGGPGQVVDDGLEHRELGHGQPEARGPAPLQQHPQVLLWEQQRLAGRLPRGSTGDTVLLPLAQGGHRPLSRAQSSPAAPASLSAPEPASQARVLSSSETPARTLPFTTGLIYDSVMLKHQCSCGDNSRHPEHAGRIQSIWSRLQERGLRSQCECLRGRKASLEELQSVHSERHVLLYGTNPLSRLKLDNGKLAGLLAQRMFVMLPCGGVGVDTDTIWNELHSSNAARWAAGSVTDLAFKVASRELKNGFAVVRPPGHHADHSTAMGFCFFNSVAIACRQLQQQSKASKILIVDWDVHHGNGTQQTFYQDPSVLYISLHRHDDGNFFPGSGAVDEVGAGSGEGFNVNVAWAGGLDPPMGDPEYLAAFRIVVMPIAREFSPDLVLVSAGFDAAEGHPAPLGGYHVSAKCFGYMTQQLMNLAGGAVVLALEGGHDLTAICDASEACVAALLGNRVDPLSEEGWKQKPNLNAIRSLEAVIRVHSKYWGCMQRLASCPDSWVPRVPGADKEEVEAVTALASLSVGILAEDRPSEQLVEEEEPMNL
The test can be described thus: Inhibition of recombinant full-length human HDAC7 using FAM-RHKK (trifluor-Ac)-NH2 as substrate by electrophoretic mobility shift assay.

Test [3] concerns the target T3, Protein deacetylase HDAC6 (Homo sapiens, UniProt Q9UBN7).
T3 sequence (Q9UBN7 whole entry): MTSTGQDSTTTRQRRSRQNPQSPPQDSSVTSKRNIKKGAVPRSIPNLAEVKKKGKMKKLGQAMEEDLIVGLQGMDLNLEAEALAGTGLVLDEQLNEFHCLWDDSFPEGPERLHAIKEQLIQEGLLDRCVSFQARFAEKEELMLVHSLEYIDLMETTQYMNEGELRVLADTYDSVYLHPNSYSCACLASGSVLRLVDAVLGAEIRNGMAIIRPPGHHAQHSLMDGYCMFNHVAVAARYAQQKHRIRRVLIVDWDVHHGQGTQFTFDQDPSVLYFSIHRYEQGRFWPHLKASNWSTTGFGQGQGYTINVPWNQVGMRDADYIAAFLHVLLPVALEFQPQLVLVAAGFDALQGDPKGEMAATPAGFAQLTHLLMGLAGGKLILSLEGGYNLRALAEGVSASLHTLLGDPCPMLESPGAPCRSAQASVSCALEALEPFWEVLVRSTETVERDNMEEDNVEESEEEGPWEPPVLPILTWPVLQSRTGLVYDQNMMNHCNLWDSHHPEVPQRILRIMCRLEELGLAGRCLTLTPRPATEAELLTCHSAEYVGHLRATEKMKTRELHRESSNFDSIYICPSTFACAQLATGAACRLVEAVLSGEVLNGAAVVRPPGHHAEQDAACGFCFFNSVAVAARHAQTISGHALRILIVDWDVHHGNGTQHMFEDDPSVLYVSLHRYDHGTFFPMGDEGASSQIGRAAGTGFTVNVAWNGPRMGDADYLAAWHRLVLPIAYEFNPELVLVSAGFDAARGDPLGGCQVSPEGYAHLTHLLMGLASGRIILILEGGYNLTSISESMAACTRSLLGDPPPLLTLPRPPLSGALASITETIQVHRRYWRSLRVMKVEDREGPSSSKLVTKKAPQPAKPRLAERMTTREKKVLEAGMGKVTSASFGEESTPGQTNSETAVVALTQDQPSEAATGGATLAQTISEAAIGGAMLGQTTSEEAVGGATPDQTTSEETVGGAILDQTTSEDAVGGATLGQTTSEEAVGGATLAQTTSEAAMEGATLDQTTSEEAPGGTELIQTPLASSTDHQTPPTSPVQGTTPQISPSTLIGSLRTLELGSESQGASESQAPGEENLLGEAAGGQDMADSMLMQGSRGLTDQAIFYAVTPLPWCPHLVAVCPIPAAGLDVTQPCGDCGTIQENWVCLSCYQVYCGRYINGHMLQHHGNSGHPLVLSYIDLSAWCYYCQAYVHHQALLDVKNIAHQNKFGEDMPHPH
The test can be described thus: Inhibition of recombinant full-length human HDAC6 using FAM-RHKK(Ac)-NH2 as substrate by electrophoretic mobility shift assay.

Test [4] addresses Histone deacetylase 9 (Homo sapiens, UniProt Q9UKV0). The test can be described thus: Inhibition of recombinant full-length human HDAC9 using FAM-RHKK (trifluor-Ac)-NH2 as substrate by electrophoretic mobility shift assay.
In test [5] the target is Histone deacetylase 2 (Homo sapiens, UniProt Q92769). The test can be described thus: Inhibition of recombinant full-length human HDAC2 using FITC-H3K27(Ac)-NH2 as substrate by electrophoretic mobility shift assay.
Histone deacetylase 2, sequence (Q92769 whole entry): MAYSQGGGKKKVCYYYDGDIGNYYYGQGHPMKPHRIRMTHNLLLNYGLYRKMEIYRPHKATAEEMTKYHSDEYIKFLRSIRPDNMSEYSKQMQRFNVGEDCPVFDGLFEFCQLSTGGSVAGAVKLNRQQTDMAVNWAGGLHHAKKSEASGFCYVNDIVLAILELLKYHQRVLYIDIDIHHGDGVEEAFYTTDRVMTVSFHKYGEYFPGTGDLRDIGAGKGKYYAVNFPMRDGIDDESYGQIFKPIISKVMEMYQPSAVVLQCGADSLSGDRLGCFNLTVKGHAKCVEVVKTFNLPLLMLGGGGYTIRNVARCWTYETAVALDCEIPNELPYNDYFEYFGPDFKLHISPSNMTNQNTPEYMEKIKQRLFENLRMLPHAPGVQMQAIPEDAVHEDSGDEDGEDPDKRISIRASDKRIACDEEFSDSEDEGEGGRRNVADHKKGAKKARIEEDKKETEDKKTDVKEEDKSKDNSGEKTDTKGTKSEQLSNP
Test [6] deals with Histone deacetylase 1 (Homo sapiens, UniProt Q13547). Briefly: Inhibition of recombinant full-length human HDAC1 using FITC-H3K27(Ac)-NH2 as substrate by electrophoretic mobility shift assay.
Histone deacetylase 1, sequence (Q13547 whole entry): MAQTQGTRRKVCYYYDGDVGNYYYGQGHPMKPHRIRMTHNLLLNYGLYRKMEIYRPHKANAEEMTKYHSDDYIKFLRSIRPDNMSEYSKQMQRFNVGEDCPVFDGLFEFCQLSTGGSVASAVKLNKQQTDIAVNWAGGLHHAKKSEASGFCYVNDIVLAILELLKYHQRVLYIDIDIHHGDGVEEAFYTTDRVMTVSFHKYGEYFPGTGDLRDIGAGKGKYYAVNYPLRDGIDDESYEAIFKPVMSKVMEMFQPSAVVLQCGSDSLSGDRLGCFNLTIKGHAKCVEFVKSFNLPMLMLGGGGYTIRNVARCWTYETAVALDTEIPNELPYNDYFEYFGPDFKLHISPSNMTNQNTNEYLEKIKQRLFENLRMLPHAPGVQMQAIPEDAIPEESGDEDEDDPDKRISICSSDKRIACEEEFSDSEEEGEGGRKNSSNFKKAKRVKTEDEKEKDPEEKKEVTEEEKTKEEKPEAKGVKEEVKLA

Histone deacetylase 9, sequence (Q9UKV0 whole entry): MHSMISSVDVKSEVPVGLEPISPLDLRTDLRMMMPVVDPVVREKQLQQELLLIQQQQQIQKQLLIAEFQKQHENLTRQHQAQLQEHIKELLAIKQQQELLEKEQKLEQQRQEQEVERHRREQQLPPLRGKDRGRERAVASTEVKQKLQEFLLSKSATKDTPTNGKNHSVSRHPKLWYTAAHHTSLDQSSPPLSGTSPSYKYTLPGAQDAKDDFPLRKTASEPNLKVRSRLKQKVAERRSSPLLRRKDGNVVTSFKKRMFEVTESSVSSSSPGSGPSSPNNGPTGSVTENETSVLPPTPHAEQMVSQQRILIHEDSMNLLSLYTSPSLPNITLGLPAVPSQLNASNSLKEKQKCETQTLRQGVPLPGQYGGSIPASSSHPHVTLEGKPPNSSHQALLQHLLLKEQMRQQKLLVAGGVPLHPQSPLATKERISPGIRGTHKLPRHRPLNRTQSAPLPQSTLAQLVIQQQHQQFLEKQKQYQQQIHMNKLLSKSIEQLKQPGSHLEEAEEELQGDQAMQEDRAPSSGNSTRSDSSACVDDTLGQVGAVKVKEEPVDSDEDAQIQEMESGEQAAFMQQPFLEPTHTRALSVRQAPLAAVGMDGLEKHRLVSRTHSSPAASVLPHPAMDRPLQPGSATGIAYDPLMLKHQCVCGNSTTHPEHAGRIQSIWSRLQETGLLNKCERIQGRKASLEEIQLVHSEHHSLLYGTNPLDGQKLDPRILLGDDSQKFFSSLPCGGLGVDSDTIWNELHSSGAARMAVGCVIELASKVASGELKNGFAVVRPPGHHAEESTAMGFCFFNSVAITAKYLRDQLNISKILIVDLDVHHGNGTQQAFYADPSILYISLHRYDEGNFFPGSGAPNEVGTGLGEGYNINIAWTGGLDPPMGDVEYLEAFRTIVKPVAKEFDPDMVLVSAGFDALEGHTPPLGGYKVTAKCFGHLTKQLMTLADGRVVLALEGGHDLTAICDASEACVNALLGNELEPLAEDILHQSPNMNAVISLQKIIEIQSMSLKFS

Regarding `O=C(NCC12C[C@H]3C[C@@H](C1)C[C@@H](C2)C3)c1ccc2c(ccn2Cc2ccc(C(=O)NO)c(Cl)c2)c1`, the IC50 in test [1] is 410 nM; in test [2] it was 570 nM; in test [3], 220 nM; in test [4], 4530 nM; in test [5], more than 10000 nM; in test [6] it was more than 10000 nM.
